Values quoted from earlier work as cited in USRE38506E1, “Potent inducers of terminal differentiation and methods of use thereof” (Sloan-Kettering Institute for Cancer Research, priority 1991, dated 2004).

System: MELC 745A-DS19 cells
Details: without continuing drug exposure; cited from earlier work

## CC(=O)NCCCCCCNC(C)=O [HMBA, N,N′-hexamethylene bisacetamide]
  minimum duration of continuous exposure required to induce differentiation in a substantial portion (>20%) of the population: about 36 hours
